We go through 29 compounds from patent US20260115185A1, “QUINOLINE DERIVATIVES WHICH ACT AS KAPPA-OPIOID RECEPTOR ANTAGONISTS” (The Scripps Research Institute, priority 2023, published 2026).

The target of experiment [1] is T1, kappa opioid receptor (KOR) (Homo sapiens, UniProt P41145).
T1 construct: host or cells: U2OS (Tango OPRK1-bla U2OS)
The experiment can be described thus: OPRKappa 1 Tango B-Arrestin Assay, antagonist mode (Tango OPRK1-bla U2OS cells, U50488 EC80 challenge). In kind it is cell-based. The settings on record: for Selectivity (MOR/KOR): Kappa selectivity, MOR IC50 / KOR IC50; for IC50: antagonist mode, Tango OPRK1-bla U2OS cells, 6 nM U50488 challenge. An outline of the steps:
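Tango OPRK1-bla U2OS cells, β-arrestin recruitment read as β-lactamase FRET (CCF4-AM, 460/590 nm emission). Compounds, 10-point 1:3 series from nominal 10 µM in quadruplicate, preincubated 30 min at 37 °C, then challenged with U50488 at 6 nM final (EC80) for 4 h; percent inhibition from median ratio.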

Experiment [2] deals with T2, mu opioid receptor (MOR) (Homo sapiens, UniProt P35372).
T2 construct: host or cells: U2OS (Discover X OPRMu1-U2OS, PathHunter)
T2 sequence (P35372 whole entry): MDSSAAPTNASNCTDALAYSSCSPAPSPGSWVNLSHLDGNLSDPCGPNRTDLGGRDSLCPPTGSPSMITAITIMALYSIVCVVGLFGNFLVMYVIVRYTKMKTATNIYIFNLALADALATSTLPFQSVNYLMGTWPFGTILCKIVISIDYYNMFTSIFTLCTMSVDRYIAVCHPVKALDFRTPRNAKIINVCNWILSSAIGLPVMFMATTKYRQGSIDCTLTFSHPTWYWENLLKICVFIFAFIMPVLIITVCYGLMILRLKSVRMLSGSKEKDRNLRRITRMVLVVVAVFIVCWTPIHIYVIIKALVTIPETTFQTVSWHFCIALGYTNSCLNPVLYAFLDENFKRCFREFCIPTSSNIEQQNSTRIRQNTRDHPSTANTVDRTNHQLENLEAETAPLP
As to the kind of experiment: OPRMu1 Discover X β-arrestin Assay, antagonist mode (U2OS cells, DAMGO EC80 challenge). The format is cell-based. An outline of the steps:
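PathHunter U2OS cells with β-gal fragment-complementation readout for β-arrestin recruitment to OPRMu1. Cells were preincubated with compound (10-point, 1:3 series from nominal 10 micromolar) for 30 min at 37 °C, then challenged with 303 nM DAMGO (EC80) for 3 h. Luminescence gave percent inhibition.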

Structures are written as SMILES.

T1 sequence (P41145 whole entry): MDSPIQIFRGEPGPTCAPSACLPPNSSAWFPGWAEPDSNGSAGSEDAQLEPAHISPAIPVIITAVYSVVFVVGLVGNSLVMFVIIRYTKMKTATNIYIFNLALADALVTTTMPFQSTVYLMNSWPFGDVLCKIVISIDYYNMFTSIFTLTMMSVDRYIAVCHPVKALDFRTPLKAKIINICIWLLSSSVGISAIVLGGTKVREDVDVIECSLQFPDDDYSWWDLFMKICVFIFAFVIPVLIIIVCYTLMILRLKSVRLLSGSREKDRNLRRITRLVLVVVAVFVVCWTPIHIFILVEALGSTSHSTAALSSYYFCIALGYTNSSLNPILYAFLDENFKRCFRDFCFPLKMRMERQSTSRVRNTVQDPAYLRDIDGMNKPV

On to `CCc1cc(F)c2nc(N3CCN(/C(=N\C#N)NC4CCOCC4)C[C@H]3C)c(-c3nc(C)no3)c(C)c2c1` [Compound 56], for which, in experiment [1], the “Selectivity (MOR/KOR)” value was “++ (between 10- and 100-fold selectivity)”; the IC50 lay in the range of 10 to 100 nM. The IC50 in experiment [2] is 100 to 1000 nM.
Turning to `CCc1cc(F)c2nc(N3CCN(C(=O)[C@@H](C(C)C)N4CCCC4)C[C@H]3C)c(-c3nc(C)no3)c(C)c2c1` [Compound 148], in experiment [1], the “Selectivity (MOR/KOR)” value is reported as “+++ (between 100- to 1000-fold selective)” and the IC50 was 1 to 10 nM. Besides, the IC50 in experiment [2] is above 1000 nM.
For `CCc1cc(-c2ccn(C)n2)c2nc(N3CCC(N[C@@H]4CCOC4)CC3)c(-c3ccn(C)n3)c(C)c2c1` [Compound 100], in experiment [1], the “Selectivity (MOR/KOR)” value is given as “++++ (more than 1000-fold selectivity over MOR)” and the IC50 is below 1 nM. Besides, in experiment [2], the IC50 is above 1000 nM.
Take `CCc1cc(F)c2nc(N3CCN(C[C@@H]4CCOC4)C[C@H]3C)c(-c3nc(C)no3)c(C)c2c1` [Compound 203]: in experiment [1], the “Selectivity (MOR/KOR)” value is recorded as “+++ (between 100- to 1000-fold selective)” and the IC50 was 10 to 100 nM. Further, the IC50 in experiment [2] was above 1000 nM.
On to `CCc1cc(-c2ccnn2C)c2nc(N3CCC(N4CCOC[C@H]4C)CC3)c(-c3ccn(C)n3)c(C)c2c1` [Compound 93], for which the IC50 in experiment [1] and in experiment [2] was above 1000 nM in each case.
Consider `CCc1cc(C#N)c2nc(N3CCC(N4CCOC[C@@H]4C)CC3)c(-c3ccn(C)n3)c(C)c2c1` [Compound 81], for which, in experiment [1], the “Selectivity (MOR/KOR)” value was “++ (between 10- and 100-fold selectivity)”. Besides, the IC50 in experiment [1] is 10 to 100 nM; in experiment [2] it was above 1000 nM.
On to `CCc1cc(F)c2nc(N3CCNC[C@H]3C)c(-c3ccn(C)n3)c(C)c2c1` [Compound 13, (R)-6-ethyl-8-fluoro-4-methyl-3-(1-methyl-1H-pyrazol-3-yl)-2-(2-methylpiperazin-1-yl)quinoline], for which the “Selectivity (MOR/KOR)” value in experiment [1] was “++ (between 10- and 100-fold selectivity)”. Also, the IC50 in experiment [1] was at least 100 nM; in experiment [2] it was above 1000 nM.
As to `COc1cc(F)c2nc(N3CCN(CC4CCOCC4)C[C@H]3C)c(-c3nc(C)no3)c(C)c2c1` [Compound 37, (R)-5-(8-fluoro-6-methoxy-4-methyl-2-(2-methyl-4-((tetrahydro-2H-pyran-4-yl)methyl)piperazin-1-yl)quinolin-3-yl)-3-methyl-1,2,4-oxadiazole], the “Selectivity (MOR/KOR)” value in experiment [1] was “++ (between 10- and 100-fold selectivity)”. In addition, the values for the IC50 in experiment [1] and in experiment [2] were at least 100 nM and above 1000 nM, respectively.
In the case of `CCc1cc(F)c2nc(N3CCNC4CC43)c(-c3nc(C)no3)c(C)c2c1` (stereo not drawn) [Compound 64], in experiment [1], the “Selectivity (MOR/KOR)” value is “++ (between 10- and 100-fold selectivity)”; the IC50 is at least 100 nM. The same compound came in with a 50% inhibitory concentration (IC50) in experiment [2] above 1000 nM.
As to `CCc1cc(F)c2nc(N3CC[C@@H](N[C@H]4CCOC4)[C@@H](F)C3)c(-c3ccn(C)n3)c(C)c2c1` [Compound 193, (3S,4R)-1-(6-ethyl-8-fluoro-4-methyl-3-(1-methyl-1H-pyrazol-3-yl)quinolin-2-yl)-3-fluoro-N—((S)-tetrahydrofuran-3-yl)piperidin-4-amine], in experiment [1], the “Selectivity (MOR/KOR)” value is recorded as “++++ (more than 1000-fold selectivity over MOR)”. In addition, the IC50 was below 1 nM in experiment [1] and above 1000 nM in experiment [2].
The like results for `CCc1cc(-c2ccnn2C)c2nc(N3CCN(C[C@H]4CCOC4)C[C@H]3C)c(-c3ccn(C)n3)c(C)c2c1` [Compound 98] were, in that order, “+++ (between 100- to 1000-fold selective)”, 10 to 100 nM and above 1000 nM.
Regarding `CCc1cc(F)c2nc(N3CCN(CC4CC(F)(F)C4)C[C@H]3C)c(-c3nc(C)no3)c(C)c2c1` [Compound 59, (R)-5-(2-(4-((3,3-difluorocyclobutyl)methyl)-2-methylpiperazin-1-yl)-6-ethyl-8-fluoro-4-methylquinolin-3-yl)-3-methyl-1,2,4-oxadiazole], in experiment [1], the “Selectivity (MOR/KOR)” value was “+++ (between 100- to 1000-fold selective)” and the IC50 is 10 to 100 nM. Moreover, in experiment [2], the concentration for half-maximal inhibition (IC50) was above 1000 nM.
In the case of `CCc1cc(F)c2nc(N3CCN(C(=O)[C@H]4CCCN4C)C[C@H]3C)c(-c3nc(C)no3)c(C)c2c1` [Compound 183], the “Selectivity (MOR/KOR)” value in experiment [1] is given as “++++ (more than 1000-fold selectivity over MOR)”. Moreover, the IC50 was 1 to 10 nM in experiment [1] and above 1000 nM in experiment [2].
Regarding `CCc1cc(F)c2nc(N3CCN(C(=O)[C@@H]4CCCN4C)C[C@H]3C)c(-c3nc(C)no3)c(C)c2c1` [Compound 46], in experiment [1], the “Selectivity (MOR/KOR)” value is listed as “+++ (between 100- to 1000-fold selective)”. Also, the concentration for half-maximal inhibition (IC50) in experiment [1] was 10 to 100 nM; in experiment [2] it was above 1000 nM.
Regarding `CCc1cc(-c2ccn(C)n2)c2nc(N3CCC(N[C@H]4CCOC[C@@H]4F)CC3)c(-c3nc(C)no3)c(C)c2c1` [Compound 102], in experiment [1], the “Selectivity (MOR/KOR)” value was “++++ (more than 1000-fold selectivity over MOR)” and the IC50 was below 1 nM. Also, the IC50 in experiment [2] was above 1000 nM.
The like results for `CCc1cc(-c2ccnn2C)c2nc(N3CCC(N[C@H]4CCOC4)CC3)c(-c3ccn(C)n3)c(C)c2c1` [Compound 86] were, in that order, “+++ (between 100- to 1000-fold selective)”, below 1 nM and above 1000 nM.
The like results for `CCc1cc(C#N)c2nc(N3CCC(NC4CC(F)(F)C4)CC3)c(-c3ccn(C)n3)c(C)c2c1` [Compound 79] were, in that order, “+++ (between 100- to 1000-fold selective)”, 1 to 10 nM and above 1000 nM.
In the case of `CCc1cc(F)c2nc(N3CCN(C(=O)[C@@H](C)N(CC)CC)C[C@H]3C)c(-c3ccn(C)n3)c(C)c2c1` [Compound 170], in experiment [1], the “Selectivity (MOR/KOR)” value was “+++ (between 100- to 1000-fold selective)”. For the same compound, the IC50 was 10 to 100 nM in experiment [1] and above 1000 nM in experiment [2].
Turning to `CCc1cc(F)c2nc(N3CCN(C(=O)[C@H](C)N4CC[C@@H](O)C4)C[C@H]3C)c(-c3nc(C)no3)c(C)c2c1` [Compound 150], in experiment [1], the “Selectivity (MOR/KOR)” value is “+++ (between 100- to 1000-fold selective)” and the IC50 is at least 100 nM. This compound also returned an IC50 in experiment [2] above 1000 nM.
Regarding `CCc1cc(F)c2nc(N3CCN(C(=O)[C@H]4CC(F)(F)CCN4C)C[C@H]3C)c(-c3nc(C)no3)c(C)c2c1` [Compound 205, ((R)-4,4-difluoro-1-methylpiperidin-2-yl)((R)-4-(6-ethyl-8-fluoro-4-methyl-3-(3-methyl-1,2,4-oxadiazol-5-yl)quinolin-2-yl)-3-methylpiperazin-1-yl)methanone], the “Selectivity (MOR/KOR)” value in experiment [1] is listed as “+++ (between 100- to 1000-fold selective)”. The IC50 in experiment [1] was 1 to 10 nM; in experiment [2], above 1000 nM.
Regarding `CCc1cc(F)c2nc(N3CCN(C(=O)[C@H]4CCCCN4C)C[C@H]3C)c(-c3nc(C)no3)c(C)c2c1` [Compound 189], in experiment [1], the “Selectivity (MOR/KOR)” value is recorded as “++++ (more than 1000-fold selectivity over MOR)” and the IC50 was in the range of 1 to 10 nM. Moreover, the IC50 in experiment [2] was above 1000 nM.
On to `CCc1cc(F)c2nc(N3CCN(C[C@H]4CCOC4)C[C@H]3C)c(-c3nc(C)no3)c(C)c2c1` [Compound 202], for which, in experiment [1], the “Selectivity (MOR/KOR)” value is given as “++++ (more than 1000-fold selectivity over MOR)” and the IC50 is 1 to 10 nM. The compound also yielded an IC50 in experiment [2] above 1000 nM.
In the case of `CCc1cc(F)c2nc(N3CC[C@@H]4[C@@H](CCN4C[C@@H]4CCOC4)C3)c(-c3ccn(C)n3)c(C)c2c1` (stereo in doubt) [Compound 127], in experiment [1], the “Selectivity (MOR/KOR)” value is “+++ (between 100- to 1000-fold selective)” and the IC50 is at least 100 nM. In experiment [2], this compound had an IC50 above 1000 nM.
The like results for `CCc1cc(F)c2nc(N3CC[C@H](NC4CCOCC4)[C@H](F)C3)c(-c3ccn(C)n3)c(C)c2c1F` [Compound 69] were, in that order, “+++ (between 100- to 1000-fold selective)”, 10 to 100 nM and above 1000 nM.
Turning to `CCc1cc(-c2ccn(C)n2)c2nc(N3CCC(NC4CC(F)(F)C4)CC3)c(-c3nc(C)no3)c(C)c2c1` [Compound 103], in experiment [1], the “Selectivity (MOR/KOR)” value is listed as “+++ (between 100- to 1000-fold selective)” and the IC50 fell in the range of 1 to 10 nM. In experiment [2], the half-maximal inhibitory concentration (IC50) is above 1000 nM.
Consider `CCc1cc(-c2ccn(C)n2)c2nc(N3CCN(C(=O)C4CCOCC4)C[C@H]3C)c(-c3ccn(C)n3)c(C)c2c1` [Compound 101], for which the IC50 in experiment [1] and in experiment [2] was above 1000 nM each time.
Consider `CCc1cc(F)c2nc(N3CCN(C4CCOCC4)C[C@@H]3C)c(-c3nc(C)no3)c(C)c2c1` (single isomer, unassigned) [Compound 28], for which, in experiment [1], the “Selectivity (MOR/KOR)” value was “++++ (more than 1000-fold selectivity over MOR)” and the IC50 fell in the range of 1 to 10 nM. In experiment [2], this compound gave an IC50 above 1000 nM.
The like results for `CCc1cc(F)c2nc(N3CC[C@@H](N[C@@H]4CCOC4)[C@@H](F)C3)c(-c3ccn(C)n3)c(C)c2c1` [Compound 192, (3S,4R)-1-(6-ethyl-8-fluoro-4-methyl-3-(1-methyl-1H-pyrazol-3-yl)quinolin-2-yl)-3-fluoro-N—((R)-tetrahydrofuran-3-yl)piperidin-4-amine] were, in that order, “++++ (more than 1000-fold selectivity over MOR)”, below 1 nM and above 1000 nM.
On to `CCc1cc(F)c2nc(N3CCN(CC4CCOCC4)C4CC43)c(-c3nc(C)no3)c(C)c2c1` (stereo not drawn) [Compound 60], for which the IC50 was at least 100 nM in experiment [1] and above 1000 nM in experiment [2].

What is called IC50 is the concentration needed to halve the response being measured. A lower IC50 goes with inhibition by little substance.
